Measured values as given in PubChem BioAssay (NCI).
Where “and” joins values, the source holds several entries; their conditions need not be identical. Equal values may be shown once.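 Method: 48-hour compound exposure of cells in 96-well plates, five concentrations, linear interpolation of endpoints. GI50 = concentration required for 50% inhibition of growth. TGI: total growth inhibition.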

How the values were obtained:
Assay in all cases: growth of human tumour cells (NCI), 48 h
[1] = system: NCI/ADR-RES ovarian
[2] = system: SW-620 colon
[3] = system: NCI-H23 lung
[4] = system: T-47D breast
[5] = system: 786-0 renal
[6] = system: HCC-2998 colon
[7] = system: MDA-MB-231 breast
[8] = system: LOX IMVI melanoma
[9] = system: SK-MEL-28 melanoma
[10] = system: MOLT-4 leukemia

SMILES | GI50 [1] [µM] | TGI [1] | GI50 [2] | TGI [2] [µM] | GI50 [3] | TGI [3] | GI50 [4] [µM] | TGI [4] [µM] | GI50 [5] | TGI [5] [µM] | GI50 [6] [µM] | TGI [6] | GI50 [7] [µM] | TGI [7] [µM] | GI50 [8] | TGI [8] [µM] | GI50 [9] | TGI [9] [µM] | GI50 [10] | TGI [10] [µM]
COc1ccc(Oc2cc(NCCC(F)(F)F)c3ncc(-c4ccc(C(=O)NC5CC5)c(C)c4)n3n2)c(F)c1F | 0.198 | > 80.6 µM | 0.125 µM | > 100 | 4.16 µM | > 100 µM | 1.9 | > 92.7 | 1.05 µM | > 52.3 | 12.3 | > 100 µM | 2.16 | > 100 | 0.125 µM | > 100 | 4.94 µM | 59.1 | 2.03 µM | > 100
Nc1nc(-c2cc(-c3cccc4ccccc34)nc(N)n2)cc(-c2cccc3ccccc23)n1 | – | > 100 µM | – | > 100 | – | > 100 µM | – | > 100 | – | > 100 | – | > 100 µM | – | > 100 | – | > 100 | – | > 100 | – | > 100
CCCCCSC1C2C(=O)C(Br)=CC13CCNc1c(O)c4c5c(c13)=[N+]2CCC=5C=N4 (stereo not drawn) | 4.42 | 16.7 µM | 0.545 µM | 1.55 | 1.33 µM | 6.21 µM | 1.74 | 6.03 | 2.7 µM | 5.12 | 1.25 | 3.88 µM | 0.417 | 1.5 | 0.842 µM | 3.35 | 2.12 µM | 4.55 | 0.762 µM | 5.73
COC(=O)/C(=C\c1c(-c2ccccc2)[nH]c2ccccc12)S(C)(=O)=O | 3.28 | > 100 µM | 2.92 µM | 15.9 | 7.95 µM | 41.8 µM | 2.82 | 30.8 | 7.46 µM | 23.9 | 8.78 | 22.4 µM | 2.39 | 17.7 | 5.07 µM | 17.6 | 6.04 µM | 21.9 | 4.72 µM | > 100
C[n+]1c(/C=C/c2ccc(/C=N/NC(=O)c3ccc(C(=O)N/N=C/c4ccc(/C=C/c5cn6ccccc6[n+]5C)cc4)cc3)cc2)cn2ccccc21 | – | > 100 µM | – | > 100 | – | > 100 µM | – | > 100 | – | > 100 | – | > 100 µM | – | > 100 | – | > 100 | – | > 100 | – | 92.4
Cc1cc2c(cc1C)[n+](Cc1ccc3ccccc3n1)cn2Cc1ccc2ccccc2n1 | 16.7 | 50.9 µM | 1.07 µM | 2.92 | 0.736 µM | 3.53 µM | 0.393 | 2.93 | 1.54 µM | 3.03 | 1.27 | 2.73 µM | 1.09 | 2.52 | 0.669 µM | 2 | 0.992 µM | 2.47 | 1.46 µM | 5.15
CNC(=O)c1cc2c(Oc3ccc(NC(=S)NC(=O)Cc4ccccc4)cc3F)ccnc2cc1OC | 7.01 | > 100 µM | > 100 µM | > 100 | 3.13 µM | > 100 µM | 2.8 | > 100 | 5.75 µM | > 100 | > 100 | > 100 µM | 3.87 | > 100 | 4.13 µM | > 100 | > 100 µM | > 100 | 3.47 µM | > 100
O=C1N[C@H]2[C@H](O)[C@H](O)[C@@H](O)[C@H](O)[C@@H]2c2cc3c(c(O)c21)OCO3 | 0.0241 | 0.189 µM and 0.523 µM | 0.239 µM and 0.25 µM | – | 0.241 µM and 0.375 µM | 0.712 µM and 2.18 µM and 0.677 µM | – | 0.155 | 0.324 µM and 0.0396 µM | – | 0.0618 | 0.279 µM and 0.148 µM | – | 0.091 | 0.147 µM and 0.196 µM | – | 0.308 µM and 0.382 µM | – | 0.196 µM and 0.575 µM | –
CNCCCn1c2c(c3ccc(F)cc3c1=O)C(=O)c1cc(OC)cnc1-2 | 0.431 | 9.51 µM | 0.184 µM | 2.03 | 0.312 µM | 1.97 µM | 0.16 | 0.704 | 0.195 µM | 0.658 | 1.15 | 4.17 µM | 0.7 | 2.38 | 0.142 µM | 0.375 | 1.44 µM | 3.94 | 0.0379 µM | 0.318
Clc1ccc(N2CCC(N3CCCC3)CC2)cc1-c1nc2ccccc2[nH]1 | 29.4 | > 100 µM | 16.8 µM | 36 | 25.7 µM | > 71.3 µM | 21.6 | 88.1 | 14.7 µM | 28.7 | 18.6 | 37.4 µM | 17.1 | 32.5 | 18.1 µM | 35.5 | 16.5 µM | 31.2 | 23.2 µM | 67.7
CCCC#CCOC(=O)c1cc([N+](=O)[O-])cc([N+](=O)[O-])c1 | – | > 100 µM | – | > 100 | – | > 100 µM | – | > 100 | – | > 100 | – | > 100 µM | – | > 100 | – | > 100 | – | > 100 | – | > 100
CC(=O)NC1=C(Sc2ccc(Cl)cc2)C(=O)c2ccccc2C1=O | – | 6.31 µM | – | 4.01 | – | 37 µM | – | 4.95 | – | 4.16 | – | 27.8 µM | – | 10.2 | – | 14 | – | 11.9 | – | 1.7
CC(C)(C)OC(=O)NCCCCCCCCCCn1c2c(c3ccccc3c1=O)C(=O)c1ccccc1-2 | > 100 | > 100 µM | > 100 µM | > 100 | 34.2 µM | > 100 µM | > 100 | > 100 | 20.2 µM | > 100 | > 100 | > 100 µM | 17.9 | 85.9 | > 100 µM | > 100 | > 100 µM | > 100 | 16.2 µM | 31.2
CC12CCC(O)CC1=CCC1C2CCC2(C)C(c3cccnc3)=CCC12 (stereo not drawn) | > 100 | > 100 µM | > 100 µM | > 100 | > 100 µM | > 100 µM | > 100 | > 100 | 50.4 µM | > 100 | > 100 | > 100 µM | > 100 | > 100 | > 100 µM | > 100 | > 100 µM | > 100 | > 100 µM | > 100
